The target of this assay is T1, human kinase Mps-1 (Homo sapiens, UniProt P33981).
T1 construct: N-terminally GST-tagged human full length recombinant Mps-1 kinase; GST (N); purchased Invitrogen, Karslruhe, Germany PV4071
T1 sequence (P33981 1-857): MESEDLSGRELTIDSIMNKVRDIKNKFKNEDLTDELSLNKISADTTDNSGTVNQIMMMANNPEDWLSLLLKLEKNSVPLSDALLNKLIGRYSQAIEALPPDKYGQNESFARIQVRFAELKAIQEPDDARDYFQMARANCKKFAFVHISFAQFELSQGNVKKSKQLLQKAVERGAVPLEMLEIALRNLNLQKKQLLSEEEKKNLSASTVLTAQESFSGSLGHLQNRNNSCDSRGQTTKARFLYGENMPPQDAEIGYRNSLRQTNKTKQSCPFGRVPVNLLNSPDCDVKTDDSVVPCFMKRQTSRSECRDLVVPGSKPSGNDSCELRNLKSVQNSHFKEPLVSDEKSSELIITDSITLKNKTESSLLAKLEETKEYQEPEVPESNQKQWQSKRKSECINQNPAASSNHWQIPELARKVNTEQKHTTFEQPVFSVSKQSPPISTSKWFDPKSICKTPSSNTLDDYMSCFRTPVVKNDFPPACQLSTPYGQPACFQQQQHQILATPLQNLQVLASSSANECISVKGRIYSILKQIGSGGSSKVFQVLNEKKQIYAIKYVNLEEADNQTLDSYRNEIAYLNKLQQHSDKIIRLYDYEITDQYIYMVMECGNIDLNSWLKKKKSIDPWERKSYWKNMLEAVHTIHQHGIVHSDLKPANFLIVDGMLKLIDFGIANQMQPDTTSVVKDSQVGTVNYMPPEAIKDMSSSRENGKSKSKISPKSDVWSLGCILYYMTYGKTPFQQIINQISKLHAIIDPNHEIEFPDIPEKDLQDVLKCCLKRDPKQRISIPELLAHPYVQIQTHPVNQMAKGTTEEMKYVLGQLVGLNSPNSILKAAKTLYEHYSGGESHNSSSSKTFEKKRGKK
Briefly: Mps-1 kinase assay (TR-FRET). It counts as biochemical. As to conditions: Mps-1 TR-FRET kinase assay; avg; read-out: Mps1 avg (IC50 [mol/l]). In a few lines:
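GST-tagged full-length recombinant human Mps-1 (~0.5 nM) pre-incubated 15 min with compound, then reacted 60 min at 22 °C with 10 μM ATP and 1 μM biotinylated peptide in Hepes pH 7.7 buffer. EDTA-stopped; TR-FRET (Eu anti-phospho-Ser/Thr to SA-XLent) 665/620 nm ratio normalised to no-inhibitor and no-enzyme controls.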
In general terms: Time-resolved FRET reads energy transfer from a long-lived donor to a nearby acceptor.

Bounds are passed on as bounds.

Take `Cc1nsc(Nc2cnc(C(F)(F)F)cn2)c1C(=O)Nc1ccc(F)c(OCC2CCN(CCF)CC2)c1` [Example 309, N-(4-fluoro-3-{[1-(2-fluoroethyl)piperidin-4-yl]methoxy}phenyl)-3-methyl-5-{[5-(trifluoromethyl)pyrazin-2-yl]amino}-1,2-thiazole-4-carboxamide]: the IC50 was ≥ 20 µM. Consider `Cc1nsc(Nc2cnc(C(F)(F)F)cn2)c1C(=O)Nc1ccc(OC2CCN(CCC(F)(F)F)C2)nc1` (stereo not drawn) [Example 298, 3-methyl-5-{[5-(trifluoromethyl)pyrazin-2-yl]amino}-N-(6-{[1-(3,3,3-trifluoropropyl)pyrrolidin-3-yl]oxy}pyridin-3-yl)-1,2-thiazole-4-carboxamide], for which the IC50 is > 20 µM. With `Cc1nsc(Nc2cnc(C(F)(F)F)cn2)c1C(=O)Nc1ccc(F)c(OC2CCN(CC(F)F)CC2)c1` [Example 265, N-(3-{[1-(2,2-difluoroethyl)piperidin-4-yl]oxy}-4-fluorophenyl)-3-methyl-5-{[5-(trifluoromethyl)pyrazin-2-yl]amino}-1,2-thiazole-4-carboxamide], the IC50 was > 20 µM. Under `CCN1CCN(C(=O)c2ccc(NC(=O)c3c(C)nsc3Nc3cncc(C(F)(F)F)n3)cc2)CC1` [Example 275, N-{4-[(4-ethylpiperazin-1-yl)carbonyl]phenyl}-3-methyl-5-{[6-(trifluoromethyl)pyrazin-2-yl]amino}-1,2-thiazole-4-carboxamide] stands > 20 µM; under `Cc1nsc(Nc2cnc(C(F)(F)F)cn2)c1C(=O)Nc1ccc(F)c(OCCCNCCC(F)(F)F)c1` [Example 307, N-(4-fluoro-3-{3-[(3,3,3-trifluoropropyl)amino]propoxy}phenyl)-3-methyl-5-{[5-(trifluoromethyl)pyrazin-2-yl]amino}-1,2-thiazole-4-carboxamide], ≥ 20 µM; under `Cc1nsc(Nc2cnc(C(F)(F)F)cn2)c1C(=O)Nc1ccc(F)c(OC2CCN(CC(F)F)C2)c1` (stereo not drawn) [Example 314, N-(3-{[1-(2,2-difluoroethyl)pyrrolidin-3-yl]oxy}-4-fluorophenyl)-3-methyl-5-{[5-(trifluoromethyl)pyrazin-2-yl]amino}-1,2-thiazole-4-carboxamide], ≥ 20 µM.

The values above are taken from patent publication US20170334899A1, “AMINO-SUBSTITUTED ISOTHIAZOLES” (Bayer Pharma Aktiengesellschaft, priority 2014, published 2017).
